Data as given in patent US20170015555A1, “LONG-TERM PRESERVATION AND NOVEL APPLICATION OF CHLOROUS ACID AQUEOUS SOLUTION FORMULATION” (priority 2013, published 2017).

Columns and labels:
Assay type in all cases: cell-based
[1] = system: Bacillus cereus NBRC15305; assay: Sterilizing effect on floor surface after wiping off imitation vomit, carpet
Text: (§1) 1) Chlorous acid aqueous solution formulation (see Example 1: Table 11) Treatment sheet (material: 100% cotton): (about 27×40 cm) *Impregnated at a ratio of weight of treatment sheet (g): amount of liquid (ml)=1:3 2) Imitation vomit Miso solution: adjusted to pH of 2 with hydrochloric acid 3) Test Microbes that were Used E. coli: Escherichia coli IF03927 Staphylococcus aureus: Staphylococcus aureus IF0 12732 Thermoduric Microbes (Bacillus cereus): Bacillus cereus NBRC15305 Microbes of the genus Salmonella: Salmonella Enteritidis IF03313 Enterohemorrhagic Escherichia coli O157: Escherichia coli O157 Enterohemorrhagic Escherichia coli O111: Escherichia coli O111 Enterohemorrhagic Escherichia coli O26: Escherichia coli O26
(§2) (1) Imitation vomit was spread in an area about the size of an A4 sheet. (2) 5 dry sheets were laid thereon. (3) An agent solution was poured on the dry sheets to wipe off the imitation vomit. (4) A cotton swab was soaked with sterile saline. A portion where imitation vomit was spread was scrubbed with the cotton swab to collect microbes remaining on the floor. After suspending in saline, the solution was spread on a petri dish and cultured. The number of each of the microbes was measured. (5) Test operations 3 and 4 were repeated a total of 7 times (repeated until the imitation vomit could be removed completely).

[2] = system: E. coli: Escherichia coli IF03927; assay: as above; details: 1000 ppm available chlorine
Text: as §1, §2

[3] = system: Enterohemorrhagic Escherichia coli O111; assay: as above
Text: as §1, §2

[4] = system: Enterohemorrhagic Escherichia coli O157; assay: as above; details: 1000 ppm available chlorine
Text: as §1, §2

[5] = system: Staphylococcus aureus IF0 12732; assay: as above; details: 1000 ppm available chlorine
Text: as §1, §2

[6] = system: E. coli: Escherichia coli IF03927; assay: Permeability of pathogenic microbes when treatment sheets were laid on vomit; set-up: unit not given here; details: 1000 ppm available chlorine
Text: (§3) 1) Chlorous acid aqueous solution formulation (see Example 1: Table 11) Treatment sheet (material: 100% cotton): (about 27×40 cm) *Impregnated at a ratio of weight of treatment sheet (g): amount of liquid (ml)=1:3 2) Imitation vomit (hereinafter, referred to as vomit) Miso solution: adjusted to pH 2 with hydrochloric acid 3) Test Microbes that were used E. coli: Escherichia coli IF03927 Staphylococcus aureus: Staphylococcus aureus IF0 12732 Thermoduric Microbes (Bacillus cereus): Bacillus cereus NBRC15305 Microbes of the genus Salmonella: Salmonella Enteritidis IF03313 Enterohemorrhagic Escherichia coli 0157: Escherichia coli 0157 Enterohemorrhagic Escherichia coli 0111: Escherichia coli 0111 Enterohemorrhagic Escherichia coli 026: Escherichia coli O26
(§4) Permeability of pathogenic microbes into a treatment sheet when treating vomit was examined to compare effects of preventing secondary contamination. (1) Imitation vomit is spread in an area about the size of an A4 sheet. (2) 30 agent solution-containing treatment sheets were laid thereon and left standing for 10 minutes. (3) Treatment sheets were removed one at a time from the top. After diluting with saline, the sample was spread in a petri dish and cultured.

[7] = system: Thermoduric Microbes (Bacillus cereus): Bacillus cereus NBRC15305; assay: as above; set-up: unit not given here; details: 1000 ppm available chlorine
Text: as §3, §4

[8] = system: Staphylococcus aureus IF0 12732; assay: as above; set-up: unit not given here; details: 1000 ppm available chlorine
Text: as §3, §4

[9] = system: Microbes of the genus Salmonella: Salmonella Enteritidis IF03313; details: stored at 25° C. Day 0; 1000 ppm available chlorine
Text: as §1, §2

[10] = stored at 25° C. Day 0, 1000 ppm available chlorine
[11] = stored at 25° C. Day 7, Sodium Hypochlorite, 0 ppm
[12] = stored at 25° C. Day 0, 1000 ppm

For `OCl` [Sodium Hypochlorite, sodium hypochlorite], the “Number of Times Wiped 1 Time (remaining microbes)” value [1, 10] was <10, the “Number of Times Wiped 2 Times (remaining microbes)” value [1, 10] was <10 and the “Number of Times Wiped 3 Times (remaining microbes)” value [1, 10] was <10. The “Number of Times Wiped 1 Time (remaining microbes)” value [1, 11] was 6.7 × 10^3, the “Number of Times Wiped 2 Times (remaining microbes)” value [1, 11] was 5.2 × 10^3 and the “Number of Times Wiped 3 Times (remaining microbes)” value [1, 11] was 4.9 × 10^3. For the same compound, the “Number of Times Wiped 7 Times (remaining microbes)” value [1, 11] was 2.0 × 10^3, the “Number of Times Wiped 1 Time (remaining microbes)” value ([2]; stored at 25° C. Day 0) was <10 and the “Number of Times Wiped 2 Times (remaining microbes)” value ([2]; stored at 25° C. Day 0) was <10. For the same compound, the “Number of Times Wiped 3 Times (remaining microbes)” value ([2]; stored at 25° C. Day 0) was <10, the “Number of Times Wiped 1 Time (remaining microbes)” value ([2]; stored at 25° C. Day 7) was <10 and the “Number of Times Wiped 2 Times (remaining microbes)” value ([2]; stored at 25° C. Day 7) was <10. The “Number of Times Wiped 3 Times (remaining microbes)” value ([2]; stored at 25° C. Day 7) was <10, the “Number of Times Wiped 1 Time (remaining microbes)” value [3, 12] was <10 and the “Number of Times Wiped 2 Times (remaining microbes)” value [3, 12] was <10. For the same compound, the “Number of Times Wiped 3 Times (remaining microbes)” value [3, 12] was <10, the “Number of Times Wiped 1 Time (remaining microbes)” value [3, 11] was 2.3 × 10^3 and the “Number of Times Wiped 2 Times (remaining microbes)” value [3, 11] was 1.9 × 10^3. The “Number of Times Wiped 3 Times (remaining microbes)” value [3, 11] was 1.1 × 10^3, the “Number of Times Wiped 1 Time (remaining microbes)” value ([4]; stored at 25° C. Day 0) was <10 and the “Number of Times Wiped 2 Times (remaining microbes)” value ([4]; stored at 25° C. Day 0) was <10. The “Number of Times Wiped 3 Times (remaining microbes)” value ([4]; stored at 25° C. Day 0) was <10, the “Number of Times Wiped 1 Time (remaining microbes)” value ([4]; stored at 25° C. Day 7) was <10 and the “Number of Times Wiped 2 Times (remaining microbes)” value ([4]; stored at 25° C. Day 7) was <10. For the same compound, the “Number of Times Wiped 3 Times (remaining microbes)” value ([4]; stored at 25° C. Day 7) was <10, the “Number of Times Wiped 1 Time (remaining microbes)” value ([5]; stored at 25° C. Day 0) was <10 and the “Number of Times Wiped 2 Times (remaining microbes)” value ([5]; stored at 25° C. Day 0) was <10. For the same compound, the “Number of Times Wiped 3 Times (remaining microbes)” value ([5]; stored at 25° C. Day 0) was <10, the “Number of Times Wiped 1 Time (remaining microbes)” value ([5]; stored at 25° C. Day 7) was <10 and the “Number of Times Wiped 2 Times (remaining microbes)” value ([5]; stored at 25° C. Day 7) was <10. For the same compound, the “Number of Times Wiped 3 Times (remaining microbes)” value ([5]; stored at 25° C. Day 7) was <10, the “microbes in treatment sheet laid on imitation vomit” value (“microbes in treatment sheet laid” for short) ([6]; 1 sheet, Day 0 at 25° C.) was <10 and the “microbes in treatment sheet laid” value ([6]; 1 sheet, Day 7 at 25° C.) was >10^6. For the same compound, the “microbes in treatment sheet laid” value ([6]; 2 sheets, Day 0 at 25° C.) was <10, the “microbes in treatment sheet laid” value ([6]; 2 sheets, Day 7 at 25° C.) was >10^6 and the “microbes in treatment sheet laid” value ([6]; 3 sheets, Day 0 at 25° C.) was <10. The “microbes in treatment sheet laid” value ([6]; 3 sheets, Day 7 at 25° C.) was >10^6, the “microbes in treatment sheet laid” value ([6]; 4 sheets, Day 0 at 25° C.) was <10 and the “microbes in treatment sheet laid” value ([6]; 4 sheets, Day 7 at 25° C.) was >10^6. The “microbes in treatment sheet laid” value ([6]; 5 sheets, Day 0 at 25° C.) was <10, the “microbes in treatment sheet laid” value ([6]; 5 sheets, Day 7 at 25° C.) was >10^6 and the “microbes in treatment sheet laid” value ([6]; 6 sheets, Day 0 at 25° C.) was <10. The “microbes in treatment sheet laid” value ([6]; 6 sheets, Day 7 at 25° C.) was >10^6, the “microbes in treatment sheet laid” value ([6]; 8 sheets, Day 0 at 25° C.) was <10 and the “microbes in treatment sheet laid” value ([6]; 8 sheets, Day 7 at 25° C.) was >10^6. The “microbes in treatment sheet laid” value ([6]; 10 sheets, Day 0 at 25° C.) was <10, the “microbes in treatment sheet laid” value ([6]; 10 sheets, Day 7 at 25° C.) was >10^6 and the “microbes in treatment sheet laid” value ([6]; 20 sheets, Day 0 at 25° C.) was <10. For the same compound, the “microbes in treatment sheet laid” value ([6]; 20 sheets, Day 7 at 25° C.) was >10^6, the “microbes in treatment sheet laid” value ([6]; 30 sheets, Day 0 at 25° C.) was <10 and the “microbes in treatment sheet laid” value ([6]; 30 sheets, Day 7 at 25° C.) was >10^6. The “microbes in treatment sheet laid” value ([7]; 1 sheet, Day 0 at 25° C.) was <10, the “microbes in treatment sheet laid” value ([7]; 1 sheet, Day 7 at 25° C.) was >10^6 and the “microbes in treatment sheet laid” value ([7]; 2 sheets, Day 0 at 25° C.) was <10. For the same compound, the “microbes in treatment sheet laid” value ([7]; 2 sheets, Day 7 at 25° C.) was >10^6, the “microbes in treatment sheet laid” value ([7]; 3 sheets, Day 0 at 25° C.) was <10 and the “microbes in treatment sheet laid” value ([7]; 3 sheets, Day 7 at 25° C.) was >10^6. For the same compound, the “microbes in treatment sheet laid” value ([7]; 4 sheets, Day 0 at 25° C.) was <10, the “microbes in treatment sheet laid” value ([7]; 4 sheets, Day 7 at 25° C.) was >10^6 and the “microbes in treatment sheet laid” value ([7]; 5 sheets, Day 0 at 25° C.) was <10. The “microbes in treatment sheet laid” value ([7]; 5 sheets, Day 7 at 25° C.) was >10^6, the “microbes in treatment sheet laid” value ([7]; 6 sheets, Day 0 at 25° C.) was <10 and the “microbes in treatment sheet laid” value ([7]; 6 sheets, Day 7 at 25° C.) was >10^6. The “microbes in treatment sheet laid” value ([7]; 8 sheets, Day 0 at 25° C.) was <10, the “microbes in treatment sheet laid” value ([7]; 8 sheets, Day 7 at 25° C.) was 1.1 × 10^4 and the “microbes in treatment sheet laid” value ([7]; 10 sheets, Day 0 at 25° C.) was <10. For the same compound, the “microbes in treatment sheet laid” value ([7]; 10 sheets, Day 7 at 25° C.) was 7.1 × 10^2, the “microbes in treatment sheet laid” value ([7]; 20 sheets, Day 0 at 25° C.) was <10 and the “microbes in treatment sheet laid” value ([7]; 20 sheets, Day 7 at 25° C.) was <10. For the same compound, the “microbes in treatment sheet laid” value ([7]; 30 sheets, Day 0 at 25° C.) was <10, the “microbes in treatment sheet laid” value ([7]; 30 sheets, Day 7 at 25° C.) was <10 and the “microbes in treatment sheet laid” value ([8]; 1 sheet, Day 0 at 25° C.) was <10. For the same compound, the “microbes in treatment sheet laid” value ([8]; 1 sheet, Day 7 at 25° C.) was >10^6, the “microbes in treatment sheet laid” value ([8]; 2 sheets, Day 0 at 25° C.) was <10 and the “microbes in treatment sheet laid” value ([8]; 2 sheets, Day 7 at 25° C.) was >10^6. The “microbes in treatment sheet laid” value ([8]; 3 sheets, Day 0 at 25° C.) was <10, the “microbes in treatment sheet laid” value ([8]; 3 sheets, Day 7 at 25° C.) was >10^6 and the “microbes in treatment sheet laid” value ([8]; 4 sheets, Day 0 at 25° C.) was <10. The “microbes in treatment sheet laid” value ([8]; 4 sheets, Day 7 at 25° C.) was >10^6, the “microbes in treatment sheet laid” value ([8]; 5 sheets, Day 0 at 25° C.) was <10 and the “microbes in treatment sheet laid” value ([8]; 5 sheets, Day 7 at 25° C.) was >10^6. The “microbes in treatment sheet laid” value ([8]; 6 sheets, Day 0 at 25° C.) was <10, the “microbes in treatment sheet laid” value ([8]; 6 sheets, Day 7 at 25° C.) was >10^6 and the “microbes in treatment sheet laid” value ([8]; 8 sheets, Day 0 at 25° C.) was <10. The “microbes in treatment sheet laid” value ([8]; 8 sheets, Day 7 at 25° C.) was 1.1 × 10^4, the “microbes in treatment sheet laid” value ([8]; 10 sheets, Day 0 at 25° C.) was <10 and the “microbes in treatment sheet laid” value ([8]; 10 sheets, Day 7 at 25° C.) was 7.1 × 10^2. For the same compound, the “microbes in treatment sheet laid” value ([8]; 20 sheets, Day 0 at 25° C.) was <10, the “microbes in treatment sheet laid” value ([8]; 20 sheets, Day 7 at 25° C.) was <10 and the “microbes in treatment sheet laid” value ([8]; 30 sheets, Day 0 at 25° C.) was <10. For the same compound, the “microbes in treatment sheet laid” value ([8]; 30 sheets, Day 7 at 25° C.) was <10, the “Number of Times Wiped 1 Time (remaining microbes)” value [9] was <10 and the “Number of Times Wiped 2 Times (remaining microbes)” value [9] was <10. For the same compound, the “Number of Times Wiped 3 Times (remaining microbes)” value [9] was <10.
